Results on 8 molecules are retold here after paper doi:10.1101/2024.01.18.576231v1 (biorxiv, 2024).

What all share (format): binding
In assay [1] the target is T1, CRBN_ΔHBD (Homo sapiens, UniProt Q96SW2, INS193GNGNSG/DEL194-248). The experiment in a line: fluorescence polarization, displacement of Cy5-thalidomide. The conditions noted are these: […] Cy5-thalidomide tracer, pH […]. For orientation: In fluorescence polarisation assays a small probe gives low polarisation when free and higher when bound to something large.
For assay [2], the target named is T1, CRBN_ΔHBD. The assay is described as follows: fluorescence polarization, direct titration. The conditions noted are these: labelled compound; […] tracer, pH […], RT.
In the next assay the target is CRBN_TBD (Homo sapiens, UniProt Q96SW2). The assay is described as follows: fluorescence polarization, direct titration. The conditions noted are these: labelled compound; […] tracer, pH […], RT.
The target in another assay is CRBN:DDB1 complex (Homo sapiens, UniProt Q96SW2). The assay is described as follows: fluorescence polarization, direct titration. The following applies: labelled compound; […] tracer, pH […], RT.

The term EC50 denotes the concentration giving half of the maximal effect. High values mean weaker potency, low ones greater potency. As to `NC(=O)N1CCC(C#Cc2cccc3c2CN(C2CCC(=O)NC2=O)C3=O)CC1` (stereo not shown) [Z4999915373], the EC50 on CRBN_ΔHBD [1] came to 218 nM. This counts as sub-micromolar.

Regarding `COc1cc(N)cnc1-c1ccc2c(c1)CN(C1CCC(=O)NC1=O)C2=O` (stereo not shown) [Z5000467358], the response on CRBN_ΔHBD [1] was half-maximal at 151 nM (EC50).

Turning to `O=C1CCC(N2Cc3c(C=C4CCOC4)cccc3C2=O)C(=O)N1` (stereo not shown) [Z4223332422], the EC50 at CRBN_ΔHBD [1] amounted to 193 nM.

By Kd is commonly meant the concentration at which binding is half-saturated. High values mean lower affinity, low ones higher affinity. Turning to Cy5-conjugated thalidomide, the Kd stood at 13 nM on CRBN_ΔHBD [2], 5 µM on CRBN_TBD and 4.1 nM on CRBN:DDB1 complex.

On to `COc1nccnc1CNc1ccc2c(c1)CN(C1CCC(=O)NC1=O)C2=O` (stereo not shown) [Z5000208878], for which, at CRBN_ΔHBD [1], the midpoint of the response, the EC50, lay at 197 nM.

Regarding `Nc1c(O)ccc2c1C(=O)N(C1CCC(=O)NC1=O)C2=O` (stereo not shown) [Z3269026162], the EC50 on CRBN_ΔHBD [1] is 187 nM.

Take `Cc1nn(CCO)cc1CNc1ccc2c(c1)CN(C1CCC(=O)NC1=O)C2=O` (stereo not shown) [Z5000207375]: the EC50 at CRBN_ΔHBD [1] stood at 257 nM. The EC50 values of the last two molecules are within 1.5-fold of each other.

For the molecule `COc1cccc2c1CN(C1CCC(=O)NC1=O)C2=O` (stereo not shown) [Z2508929002], at CRBN_ΔHBD [1], the EC50 was 223 nM.
